The source of these data is US20230143752A1, “CANNABIDIOL NANODRUG FORMULATIONS AND METHODS FOR USE OF THE SAME” (priority 2020, published 2023).

The structures appear in SMILES notation.

The test system of experiment [1] is CTLL-2 cytotoxic T lymphocytes. In words: In vitro screening platform for immunomodulation (CTLL-2). It counts as cell-based. Conditions: CTLL-2, FIG. 4. How it is done: An in vitro screening platform for immunomodulation was used to evaluate nanoparticles for efficacy. CTLL-2 (ATCC®TIB-214™) are cytotoxic T lymphocytes that were purchased and cultured according to ATCC protocol. Once confluent, cells were seeded in a 12-well plate at a concentration of 55,000 cells/mL and treated, in triplicates, with the CBD nanoformulations described herein.
A similar experiment was carried out using CBD alone (not in nanoformulations).
In order to investigate options for improving CBD drug delivery in vitro, CBD was also formulated as a carrier-free nanoparticle and evaluated for efficacy.

The subject of experiment [2] is mice with Auto-Immune Alopecia. In words: Hair regrowth in alopecia mice, topical treatment daily for 12 weeks. It counts as in vivo. To be noted: for Number of animals per hair regrowth category, Category 0: 0=no hair growth; for Number of animals per hair regrowth category, Category 0 / Number of animals per hair regrowth category, Category 1 / Number of animals per hair regrowth category, Category 2 / Number of animals per hair regrowth category, Category 3 / Number of animals per hair regrowth category, Category 4: six animals per group, topical daily 12 weeks; for Number of animals per hair regrowth category, Category 1: 1=0-25% hair regrowth; for Number of animals per hair regrowth category, Category 2: 2=25-50% hair regrowth; for Number of animals per hair regrowth category, Category 3: 3=50-75% hair regrowth; for Number of animals per hair regrowth category, Category 4: 4=75-100% hair regrowth. How it is done:
An animal study was carried out to determine the effect of a CBD nanoparticulate formulation comprising minoxidil as described herein on the induction of hair regrowth in alopecia mice after 12 weeks. In order to collect preliminary information on the reversal of Alopecia by CBD/minoxidil, a randomized pilot study on 24 animals was performed.
Eight- to ten-month-old mice with Auto-Immune Alopecia were randomized into four groups (six animals per group), receiving topical treatments daily for 12 weeks. Group 1 (Control group) received 0.1 ml of control solution applied topically over the ventral area daily for 12 weeks. Group 2 (CBD group) received 20 μg of CBD in 0.1 ml of control solution applied topically over the ventral area daily for 12 weeks. Group 3 (minoxidil) received 0.1 ml of 5% minoxidil solution applied topically over the ventral area daily for 12 weeks. Group 4 (CBD/minoxidil) received 20 μg of CBD and 5% minoxidil in 0.1 ml solution applied topically over the ventral area daily for 12 weeks.
Mice were sacrificed at the end point of a twelve week observation period, and skin biopsies were obtained. Skin biopsies were processed for histopathology.
Reported categories are as follows: 0=no hair growth, 1=0-25% hair regrowth, 2=25-50% hair regrowth, 3=50-75% hair regrowth, 4=75-100% hair regrowth.

[3] abbreviates: alopecia mice, after 12 weeks, FIG. 6.

Turning to `C=C(C)[C@@H]1CCC(C)=C[C@H]1c1c(O)cc(CCCCC)cc1O` [CBD, Cannabidiol], in experiment [1], the “reducing T-lymphocytes compared to controls” value is reported as “effective”. Further, in experiment [2], the “Number of animals per hair regrowth category, Category 0” value is on record as 6; the “Number of animals per hair regrowth category, Category 1” value is reported as 0; the “Number of animals per hair regrowth category, Category 2” value amounted to 0; the “Number of animals per hair regrowth category, Category 3” value worked out at 0. In addition, the “Number of animals per hair regrowth category, Category 4” value in experiment [2] is 0. Also, the “hair regrowth, summary” value in experiment [2] (alopecia mice, 12 weeks topical) was “none of the control (vehicle), CBD alone, or minoxidil alone mice showed significant hair regrowth”. Besides, in experiment [2] (setting [3]), the “effect observed in histopathology” value is given as “No significant effect” and the “histopathology finding in skin biopsies” value is on record as “miniaturization”.

On to `Nc1cc(N2CCCCC2)nc(N)[n+]1[O-]` [Minoxidil, minoxidil], for which, in experiment [2], the “Number of animals per hair regrowth category, Category 0” value stood at 6; the “Number of animals per hair regrowth category, Category 1” value is recorded as 0; the “Number of animals per hair regrowth category, Category 2” value amounted to 0; the “Number of animals per hair regrowth category, Category 3” value is listed as 0. The “Number of animals per hair regrowth category, Category 4” value in experiment [2] was found to be 0. Also, the “effect observed in histopathology” value in experiment [2] (setting [3]) is “No significant effect”.
